According to US12059412B2, “Pharmaceutical composition containing (R)-N-[1-(3,5-difluoro-4-methanesulfonylamino-phenyl)-ethyl]-3-(2-propyl-6-trifluoromethylpyridin-3-yl)-acrylamide and method for inhibiting crystal formation thereof” (Amorepacific Corporation, priority 2018, dated 2024):

Experiment: Solubility of compound of Formula 1 in various solvents (excess compound, shaking, HPLC)
Assay type: physicochemical
Settings: Ethanol; 25° C., 24 hours
Method: Since solvent that gives high solubility can dissolve the compound of Formula 1 in a small amount compared to a solvent that gives low solubility, in particular, when formulated into an external preparation of skin, a relatively higher amount of water may be contained, so that the feeling of use can be further enhanced.
An excessive amount of the compound of Formula 1 was added to 1 mL of each solvent shown in Table 1 below, and stirred at 25° C. at 200 rpm for 24 hours while shaking
(Shaking incubator, SI 600R, JEIO TECH, Korea). Thereafter, centrifugation was performed at 10,000 rpm for 10 minutes, and the supernatant was filtered using a membrane filter (0.2 μm), diluted appropriately with methanol, and analyzed by HPLC.

Solubility: 75.32 mg/mL
Structure (SMILES): CCCc1nc(C(F)(F)F)ccc1/C=C/C(=O)N[C@H](C)c1cc(F)c(NS(C)(=O)=O)c(F)c1 [compound of Formula 1, (R)-N-[1-(3,5-difluoro-4-methanesulfonylamino-phenyl)-ethyl]-3-(2-propyl-6-trifluoromethyl-pyridin-3-yl)-acrylamide]
